Measurements taken from PMC8916643, “Molecular physiology of pumiliotoxin sequestration in a poison frog” (PLoS ONE, 2022).

What was measured:
[1] = Alkaloid feeding experiment, alkaloid abundance in tissues by LC-MS/MS; format: in vivo, Dendrobates tinctorius; conditions: DHQ+PTX feeding group; fed orally daily for five days
Text: Lab-reared (non-toxic) Dendrobates tinctorius were housed in terraria with live plants, a water pool, and a shelter. Ten adult females were size-matched, randomly assigned to control or experimental groups (N = 5 per group), and then housed individually. To measure the specific effects of PTX 251D compared to a background toxicity, the control group was fed 0.01% DHQ (Sigma-Aldrich, St. Louis, USA) in a solution of 1% EtOH and the experimental group was fed a solution of 0.01% DHQ and 0.01% PTX 251D (PepTech, Burlington, MA, USA) in a solution of 1% EtOH in water. Each frog was fed 15 μL each day for five days by pipetting the solution directly into the mouth between 10am-12pm. On the afternoon of the fifth day, frogs were euthanized by cervical transection and the dorsal skin, liver, intestines, and oocytes were dissected into Trizol (Thermo Fisher Scientific, Waltham, USA).
To isolate alkaloids, 0.3 mL of 100% EtOH was added to 1mL of organic layer from the Trizol RNA extraction, inverted 10 times, and stored at room temperature for 2–3 minutes to precipitate genomic DNA, which was pelleted by centrifugation at 2000g for 5 minutes at 4°C. Then, 300 μL of supernatant was transferred to a new microfuge tube. Proteins were precipitated by adding 900 μL of acetone, mixing by inversion for 10–15 seconds, incubating at room temperature for 10 min, and centrifuging at max speed for 10 min at 4°C. Then, 1 mL of the supernatant containing alkaloids was moved into a glass vial and stored at -20°C until dried down completely under a gentle nitrogen gas flow.
Samples were resuspended in 200 μl of methanol:chloroform 1:1 and 1 μM Nicotine-d3 (used as an internal standard). A 10-point standard curve was prepared in the same solution with DHQ and PTX 251D. A QE+ mass spectrometer coupled to an Ultimate3000 LC (ThermoFisher) was used for analysis. […] The gradient was 0% B for 1 min, then increased to 100% B in 14 min, followed by 5 min at 100% B and 3.5 min at 0% B. Data were quantified using accurate mass, using the standard curve for DHQ and PTX 251D for absolute quantification. aPTX 267A was identified by accurate mass and MS/MS fragmentation similarity to PTX.
R version 3.6.3 was used for all statistical analyses, and all plotting and statistics code is provided in a S1 File. There were instances in the LC-MS/MS data where the molecules of interest (DHQ, PTX 251D, or aPTX 267A) were not detected, and these were converted to zeros prior to statistical analyses and visualization. […] PTX 251D and DHQ were analyzed separately. The abundance of aPTX 267A was approximated using the area-under-the-curve divided by the internal nicotine standard, and as there is no standard for aPTX 267A, exact pmol values could not be calculated. […]

mice = mice and insects; cited from earlier work
human recombinant CYP2D6 = target: T1, human recombinant CYP2D6 (Homo sapiens, UniProt P10635); assay: CYP2D6 metabolite discovery (metID); format: in vitro ADME; conditions: initial concentration 10 μM
T1 construct: Eurofins Discovery Services (Eurofins Panlabs Inc) ran the assay
T1 sequence (P10635 whole entry): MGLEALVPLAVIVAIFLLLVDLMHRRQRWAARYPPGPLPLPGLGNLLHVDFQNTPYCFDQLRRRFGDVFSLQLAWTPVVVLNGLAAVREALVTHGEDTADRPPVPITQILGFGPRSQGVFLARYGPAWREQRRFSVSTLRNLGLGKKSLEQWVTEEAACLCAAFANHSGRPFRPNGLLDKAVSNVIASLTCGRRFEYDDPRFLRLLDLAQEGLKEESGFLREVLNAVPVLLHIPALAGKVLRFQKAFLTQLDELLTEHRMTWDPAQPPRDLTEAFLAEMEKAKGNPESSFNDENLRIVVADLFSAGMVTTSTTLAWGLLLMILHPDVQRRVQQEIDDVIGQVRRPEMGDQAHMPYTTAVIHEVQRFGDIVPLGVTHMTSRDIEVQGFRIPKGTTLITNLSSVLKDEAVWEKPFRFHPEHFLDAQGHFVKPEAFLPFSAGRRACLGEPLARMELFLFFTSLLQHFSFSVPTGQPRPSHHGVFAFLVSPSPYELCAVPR
Protocol: Assays for human CYP activity (CYP phenotyping), CYP2D6 metabolite discovery (metID), ion channel inhibition (CiPA), and G-protein coupled receptor (GPCR) activity (gpcrMAX) were performed through Eurofins Discovery Services (Eurofins Panlabs Inc, St. Charles MO, USA). In the CYP phenotyping panel, human recombinant CYP1A2, CYP2B6, CYP2C8, CYP2C9, CYP2C19, CYP2D6, and CYP3A4 were included in the assay. A concentration of 1E-07 M of PTX 251D was tested, and the percent compound remaining was quantified at 0, 15, 30, 45, and 60 minutes using HPLC-MS/MS. As a positive control, a reference compound was used for each CYP tested (see S1 File for results). In the CYP2D6 metabolism assay, human recombinant CYP2D6 was incubated with an initial concentration of 10 μM and metabolites were quantified after 90 minutes using LC-MS/MS. Two replicates were used for the CYP phenotyping panel and one replicate was used for CYP2D6 metabolite assay. The CiPA assay was a cell-based QPatch on voltage-gated sodium channel NaV1.5 (peak and late/agonist), voltage-gated potassium channels Kv4.3/KChIP2, hERG, KCNQ1/minK, Kir2.1, and voltage-gated calcium channel Cav1.2. The concentrations of PTX 251D assayed were 3, 10, and 30 μM, and a reference compound for each channel was used (see S1 File for results and individual QPatch parameters). […]

[2] = system: mammalian and insect voltage-gated sodium and potassium channels; design: method as in PMID 18061227; conditions: 100 μM; strongest effect on hKv1.3; cited from earlier work

## CCCCC(C)C=C1CN2CCCC2C(C)(O)C1 (centres unmarked) [PTX 251D, pumiliotoxin (PTX 251D)]
[1]
  PTX 251D abundance by tissue and treatment: highest levels in the liver and skin
mice
  toxic effects: pain, hyperactivity, convulsions and death
Human recombinant CYP2D6; 90 minutes, one or two hydroxylation events
  metabolites identified with CYP2D6: two metabolites were identified
Human recombinant CYP2D6; after 90 minutes, LC-MS/MS
  clearance of PTX 251D in CYP2D6 metabolite discovery screen: completely cleared
[2]
  effect on voltage-gated sodium and potassium channels: inhibits both types of channels
